Test systems include 786-0 renal; HOP-62 NSCLC; OVCAR-5 ovarian; SK-MEL-5 melanoma; SNB-19 CNS; HOP-92 NSCLC; K-562 leukemia; U251 CNS; SF-539 CNS; SF-268 CNS.
Assay in all cases: growth of human tumour cells (NCI), 48 h

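Cultured in 96-well plates, cells were exposed to test compound for 48 hours across five concentrations. GI50 marks 50% less growth. TGI denotes the concentration required for complete inhibition of growth.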

On to `O=C(CC1(O)C(=O)N(Cc2ccccc2)c2ccc(Cl)cc21)c1ccc(C(=O)NCC2CCC3(CC2)OOC2(CCCCC2)OO3)cc1` (stereo unspecified), for which the GI50 in the assay on 786-0 renal is 192 nM; in the assay on HOP-62 NSCLC, 189 nM; with OVCAR-5 ovarian it was 644 nM; in the assay on SK-MEL-5 melanoma, 1890 nM; in the assay with SNB-19 CNS, 5340 nM; in the assay on HOP-92 NSCLC, 214 nM. In addition, the GI50 in the assay with K-562 leukemia was 1570 nM; in the assay with U251 CNS, 211 nM; with SF-539 CNS it was 191 nM; with SF-268 CNS it was 1400 nM. The TGI was 367 nM in the assay on 786-0 renal; 390 nM in the assay with HOP-62 NSCLC; 6280 nM with OVCAR-5 ovarian; 4560 nM in the assay with SK-MEL-5 melanoma; > 100000 nM in the assay with SNB-19 CNS; 402 nM in the assay on HOP-92 NSCLC. Further, the TGI is > 100000 nM with K-562 leukemia, 426 nM in the assay with U251 CNS, 379 nM in the assay on SF-539 CNS and 3670 nM in the assay on SF-268 CNS.

Regarding `CSC(=NC#N)S/C=C/C(=O)c1ccccc1`, the GI50 in the assay on 786-0 renal is 33700 nM; in the assay on HOP-62 NSCLC it was 36000 nM; in the assay on OVCAR-5 ovarian, 62000 nM; with SK-MEL-5 melanoma, 45900 nM; in the assay with SNB-19 CNS it was > 100000 nM; in the assay with HOP-92 NSCLC, 32400 nM. In addition, the GI50 is 32700 nM in the assay with K-562 leukemia, 40300 nM in the assay on U251 CNS, 22600 nM in the assay on SF-539 CNS and 43800 nM in the assay on SF-268 CNS. Besides, the TGI with 786-0 renal, in the assay on HOP-62 NSCLC, in the assay on OVCAR-5 ovarian, in the assay with SK-MEL-5 melanoma, in the assay with SNB-19 CNS and with HOP-92 NSCLC was > 100000 nM each time. The TGI is > 100000 nM with K-562 leukemia, > 100000 nM in the assay with U251 CNS, 49400 nM in the assay on SF-539 CNS and > 100000 nM with SF-268 CNS.

On to `CCC(=O)N1C(=O)OCC1C(C)C` (stereo unspecified), for which the TGI in the assay on 786-0 renal, in the assay with HOP-62 NSCLC, in the assay on OVCAR-5 ovarian, in the assay with SK-MEL-5 melanoma, in the assay on SNB-19 CNS and with HOP-92 NSCLC was > 100000 nM each time. The TGI in the assay with K-562 leukemia, with U251 CNS, with SF-539 CNS and in the assay on SF-268 CNS was > 100000 nM in each case.

In the case of `O=C1C(=O)N(c2ccc(Cl)cc2)C(=O)C(=O)C1c1nc2ccccc2o1`, the TGI in the assay with 786-0 renal, with HOP-62 NSCLC, with OVCAR-5 ovarian, in the assay on SK-MEL-5 melanoma, in the assay on SNB-19 CNS and in the assay on HOP-92 NSCLC was > 100000 nM throughout. Further, the TGI in the assay with K-562 leukemia, in the assay on U251 CNS, in the assay with SF-539 CNS and in the assay with SF-268 CNS was > 100000 nM each time.

In the case of `O=C(/C=C/c1ccc(Cl)cc1)c1ccccc(=O)c1O`, the TGI was 32100 nM with 786-0 renal; 21100 nM in the assay with HOP-62 NSCLC; 19800 nM in the assay with OVCAR-5 ovarian; 4930 nM in the assay on SK-MEL-5 melanoma; 11800 nM in the assay on SNB-19 CNS; 17000 nM with HOP-92 NSCLC. In addition, the TGI was 12100 nM with K-562 leukemia, > 100000 nM in the assay with U251 CNS, 17500 nM with SF-539 CNS and 36200 nM with SF-268 CNS.

With `COc1ccc(C=Nc2c(C(=O)Nc3cccc(Cl)c3C)sc3nc(C)c(C(=O)/C=C/c4ccc(OC)cc4)cc23)cc1`, the GI50 was 656 nM in the assay on 786-0 renal; 1050 nM in the assay on HOP-62 NSCLC; 2040 nM in the assay on OVCAR-5 ovarian; 856 nM with SK-MEL-5 melanoma; 1580 nM with SNB-19 CNS; 590 nM in the assay on HOP-92 NSCLC. Also, the GI50 with K-562 leukemia is 259 nM; in the assay on U251 CNS, 1560 nM; with SF-539 CNS it was 449 nM; with SF-268 CNS, 1600 nM. The TGI with 786-0 renal is > 30000 nM; in the assay with HOP-62 NSCLC, > 27500 nM; in the assay on OVCAR-5 ovarian, > 50000 nM; with SK-MEL-5 melanoma, > 50000 nM; with SNB-19 CNS, 28300 nM; with HOP-92 NSCLC it was 7120 nM. The TGI in the assay with K-562 leukemia was > 50000 nM; in the assay with U251 CNS, 18400 nM; in the assay with SF-539 CNS, 2410 nM; in the assay with SF-268 CNS it was > 50000 nM.

Turning to `CCCc1n(Cc2ccc3ccccc3c2)cc[n+]1Cc1ccc2ccccc2c1`, the GI50 was 1520 nM with 786-0 renal; 1260 nM in the assay with HOP-62 NSCLC; 1430 nM in the assay on OVCAR-5 ovarian; 485 nM with SK-MEL-5 melanoma; 869 nM in the assay with SNB-19 CNS; 863 nM in the assay on HOP-92 NSCLC. Besides, the GI50 in the assay with K-562 leukemia is 414 nM; in the assay on U251 CNS, 765 nM; with SF-539 CNS it was 1100 nM; with SF-268 CNS, 1080 nM. The TGI is 2910 nM in the assay on 786-0 renal; 2800 nM in the assay with HOP-62 NSCLC; 3320 nM in the assay with OVCAR-5 ovarian; 1620 nM in the assay on SK-MEL-5 melanoma; 2260 nM with SNB-19 CNS; 2660 nM in the assay with HOP-92 NSCLC. For the same compound, the TGI is 1750 nM with K-562 leukemia, 2110 nM in the assay on U251 CNS, 2850 nM in the assay on SF-539 CNS and 2520 nM with SF-268 CNS.

`C[C@H]1/C(=C/C(=O)OCCN(C)C)CC[C@H]2[C@H]1C(=O)C[C@H]1C(C)(C)[C@@H](O)CC[C@]21C`: the TGI in the assay on 786-0 renal, with HOP-62 NSCLC, with OVCAR-5 ovarian, with SK-MEL-5 melanoma, in the assay with SNB-19 CNS and in the assay with HOP-92 NSCLC was > 100000 nM in each case. For the same compound, the TGI in the assay on K-562 leukemia, in the assay with U251 CNS, in the assay with SF-539 CNS and with SF-268 CNS was > 100000 nM throughout. The GI50 in the assay with K-562 leukemia is > 100000 nM.

For the compound `CCCCC(CCCCCC(CCCC)NCc1ccc2c(c1)OCO2)NCc1ccc2c(c1)OCO2` (stereo unspecified), the GI50 was 1250 nM in the assay on 786-0 renal; 836 nM in the assay with HOP-62 NSCLC; 1660 nM in the assay with OVCAR-5 ovarian; 758 nM in the assay with SK-MEL-5 melanoma; 1300 nM in the assay on SNB-19 CNS; 569 nM in the assay on HOP-92 NSCLC. Also, the GI50 is 186 nM in the assay on K-562 leukemia, 207 nM in the assay on U251 CNS, 664 nM in the assay with SF-539 CNS and 905 nM with SF-268 CNS. The TGI turned out to be 2530 nM with 786-0 renal; 2130 nM with HOP-62 NSCLC; 3080 nM with OVCAR-5 ovarian; 2000 nM in the assay on SK-MEL-5 melanoma; 2590 nM in the assay with SNB-19 CNS; 2080 nM in the assay with HOP-92 NSCLC. The TGI with K-562 leukemia is 460 nM; in the assay with U251 CNS it was 438 nM; in the assay on SF-539 CNS, 1480 nM; in the assay on SF-268 CNS, 2220 nM.

Values taken from PubChem BioAssay (NCI).
